Test results published in patent US10626125B2, “1,1,1-trifluoro-3-hydroxypropan-2-yl carbamate derivatives as MAGL inhibitors” (PFIZER INC., priority 2017, dated 2020).
Where two headings read alike, the source gives them in different places.

What was measured:
[1] = molecular target: T1, human recombinant Monoacylglycerol Lipase (Homo sapiens, UniProt Q99685); assay: MAGL inactivation (kinact/KI from enzyme progress curves, T=0 min protocol); conditions: from plot of Kobs vs. compound concentration, geometric mean of 2-5 determinations (b: ≥6)
T1 sequence (Q99685 1-303): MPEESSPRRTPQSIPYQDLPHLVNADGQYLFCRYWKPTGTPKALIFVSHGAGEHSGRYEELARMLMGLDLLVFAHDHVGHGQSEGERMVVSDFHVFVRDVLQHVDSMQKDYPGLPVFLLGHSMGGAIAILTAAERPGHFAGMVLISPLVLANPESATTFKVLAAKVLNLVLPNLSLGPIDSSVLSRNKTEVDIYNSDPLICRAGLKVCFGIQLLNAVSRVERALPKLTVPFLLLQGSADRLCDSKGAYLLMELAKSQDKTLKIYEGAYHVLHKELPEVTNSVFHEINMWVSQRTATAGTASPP

[2] = molecular target: T1, human recombinant Monoacylglycerol Lipase; assay: MAGL enzymatic assay (IC50; 7-HCA substrate added at T=0 min or T=30 min); format: biochemical; conditions: geometric mean of 2-5 determinations unless otherwise indicated
[3] = MAGL (T = 30 min) IC50, substrate 7-HCA added after 30 minute incubation (T=30 min)
[4] = substrate 7-HCA added immediately (T=0 min), read-out: MAGL (T = 0 min) IC50

SMILES	MAGL kinact/KI [1]	IC50 [2, 3] [nM]	IC50 [2, 4] [nM]
O=C(O[C@H](CO)C(F)(F)F)N1CCC2(CC1)CC(n1cc(Cl)cn1)CO2 (single isomer, unassigned) [Example 22]	9780 1/s per M	4	49
Cc1cnn(C2COC3(CCN(C(=O)O[C@H](CO)C(F)(F)F)CC3)C2)c1 (single isomer, unassigned) [Example 24]	7840 1/s per M	12	115
O=C(O[C@H](CO)C(F)(F)F)N1CCC2(CC1)CC(c1ccccc1F)CO2 (single isomer, unassigned) [Example 25]	25500 1/s per M	2	20
O=C(O[C@H](CO)C(F)(F)F)N1CCC2(CC1)CC(c1ccccc1F)CO2 (single isomer, unassigned) [Example 26]	87700 1/s per M	1	8
N#Cc1cc(C2COC3(CCN(C(=O)O[C@H](CO)C(F)(F)F)CC3)C2)ccc1F (single isomer, unassigned) [Example 28]	16900 1/s per M	3	27
N#Cc1ccc(F)c(C2COC3(CCN(C(=O)O[C@H](CO)C(F)(F)F)CC3)C2)c1 (single isomer, unassigned) [Example 29]	3250 1/s per M	17	184
N#Cc1ccc(F)c(C2COC3(CCN(C(=O)O[C@H](CO)C(F)(F)F)CC3)C2)c1 (single isomer, unassigned) [Example 30]	14400 1/s per M	4	54
N#Cc1ccc(C2COC3(CCN(C(=O)O[C@H](CO)C(F)(F)F)CC3)C2)cc1 (single isomer, unassigned) [Example 31]	8060 1/s per M	4	33
O=C(O[C@H](CO)C(F)(F)F)N1CCC2(CC1)CC(c1c(F)cccc1F)CO2 (single isomer, unassigned) [Example 32]	233000 1/s per M	0.4	5
O=C(O[C@H](CO)C(F)(F)F)N1CCC2(CC1)CC(c1ccc(F)cc1F)CO2 (single isomer, unassigned) [Example 33]	53400 1/s per M	1	10
O=C(O[C@H](CO)C(F)(F)F)N1CCC2(CC1)CC(c1ccc(F)cc1)CO2 (single isomer, unassigned) [Example 34]	7920 1/s per M	4	48
O=C(O[C@H](CO)C(F)(F)F)N1CCC2(CC1)CC(c1cc(C(F)F)ccn1)CO2 (single isomer, unassigned) [Example 35]	23000 1/s per M	3	31
O=C(O[C@H](CO)C(F)(F)F)N1CCC2(CC1)CC(c1ccc(C(F)F)nc1)CO2 (single isomer, unassigned) [Example 36]	1440 1/s per M	27	239
O=C(O[C@H](CO)C(F)(F)F)N1CCC2(CC1)CC(c1ccc(C(F)F)nc1)CO2 (single isomer, unassigned) [Example 37]	3840 1/s per M	8	57
N#Cc1ccc(C2COC3(CCN(C(=O)O[C@H](CO)C(F)(F)F)CC3)C2)nc1 (single isomer, unassigned) [Example 38]	1610 1/s per M	24	200
O=C(O[C@H](CO)C(F)(F)F)N1CCC2(CC1)CC(c1ccc(C(F)F)cn1)CO2 (single isomer, unassigned) [Example 39]	5180 1/s per M	5	43
O=C(O[C@H](CO)C(F)(F)F)N1CCC2(CC1)CC(c1ccc(C(F)(F)F)cn1)CO2 (single isomer, unassigned) [Example 40]	21800 1/s per M	3	9
O=C(O[C@H](CO)C(F)(F)F)N1CCC2(CC1)CC(c1ccccn1)CO2 (single isomer, unassigned) [Example 41]	13200 1/s per M	7	76

SMILES	MAGL kinact/KI [1]	IC50 [2, 3] [nM]	IC50 [2, 4] [nM]
CC(C)(C)c1ccn(C2COC3(CCN(C(=O)O[C@H](CO)C(F)(F)F)CC3)C2)n1 (single isomer, unassigned) [Example 52]	200000 1/s per M	1	4
O=C(O[C@H](CO)C(F)(F)F)N1CCC2(CC1)CC(n1ccc(C(F)(F)F)n1)CO2 (single isomer, unassigned) [Example 53]	66900 1/s per M	1	9
Cc1cn(C2COC3(CCN(C(=O)O[C@H](CO)C(F)(F)F)CC3)C2)nc1C (single isomer, unassigned) [Example 54]	26500 1/s per M	4	21
O=C(O[C@H](CO)C(F)(F)F)N1CCC2(CC1)CC(n1ncc3ccccc31)CO2 (single isomer, unassigned) [Example 62]	18100 1/s per M	1	10
O=C(O[C@H](CO)C(F)(F)F)N1CCC2(CCC(n3cc(C(F)(F)F)cn3)CO2)CC1 (single isomer, unassigned) [Example 69]	71900 1/s per M	1	10
O=C(O[C@H](CO)C(F)(F)F)N1CCC2(CCC(n3cc(F)cn3)CO2)CC1 (single isomer, unassigned) [Example 70]	40400 1/s per M	2	22
N#Cc1cccc(C2COC3(CCN(C(=O)O[C@H](CO)C(F)(F)F)CC3)C2)c1F (single isomer, unassigned) [Example 71]	17800 1/s per M	3	29
N#Cc1ccc(C2COC3(CCN(C(=O)O[C@H](CO)C(F)(F)F)CC3)C2)c(F)c1 (single isomer, unassigned) [Example 72]	17000 1/s per M	4	32
N#Cc1cccc(C2CCOC3(CCN(C(=O)O[C@H](CO)C(F)(F)F)CC3)C2)c1 (single isomer, unassigned) [Example 73]	8870 1/s per M	3	26
O=C(O[C@H](CO)C(F)(F)F)N1CCC2(CCC(c3ccc(F)cn3)CO2)CC1 (single isomer, unassigned) [Example 74]	7140 1/s per M	6	69
O=C(O[C@H](CO)C(F)(F)F)N1CCC2(CCC(n3cc(C(F)F)cn3)CO2)CC1 (single isomer, unassigned) [Example 75]	7370 1/s per M	12	115
O=C(O[C@H](CO)C(F)(F)F)N1CCC2(CC1)CC(n1cc(C(F)(F)F)cn1)C2 [Example 1, (2R)-1,1,1-Trifluoro-3-hydroxypropan-2-yl 2-[4-(trifluoromethyl)-1H-pyrazol-1-yl]-7-azaspiro[3.5]nonane-7-carboxylate]	22200 1/s per M	2	12
O=C(O[C@H](CO)C(F)(F)F)N1CCC2(CC1)CC(c1ccc(F)cn1)C2 [Example 2, (2R)-1,1,1-Trifluoro-3-hydroxypropan-2-yl 2-(5-fluoropyridin-2-yl)-7-azaspiro[3.5]nonane-7-carboxylate]	33800 1/s per M	2	21
CN(C(=O)C1CCCC1)[C@H]1COC2(CCN(C(=O)O[C@H](CO)C(F)(F)F)CC2)C1 [Example 5, (2R)-1,1,1-Trifluoro-3-hydroxypropan-2-yl (3R)-3-[(cyclopentylcarbonyl)(methyl)amino]-1-oxa-8-azaspiro[4.5]decane-8-carboxylate]	5530 1/s per M	7	67
CN([C@H]1COC2(CCN(C(=O)O[C@H](CO)C(F)(F)F)CC2)C1)S(=O)(=O)C(C)(C)C [Example 6, (2R)-1,1,1-Trifluoro-3-hydroxypropan-2-yl (3R)-3-[(tert-butylsulfonyl)(methyl)amino]-1-oxa-8-azaspiro[4.5]decane-8-carboxylate]	6630^b 1/s per M	8	98
CN(C1CC2(CCN(C(=O)O[C@H](CO)C(F)(F)F)CC2)C1)S(=O)(=O)CC1CC1 [Example 18, (2R)-1,1,1-Trifluoro-3-hydroxypropan-2-yl 2-{[(cyclopropylmethyl)sulfonyl](methyl)amino}-7-azaspiro[3.5]nonane-7-carboxylate]	14900 1/s per M	4	52
N#Cc1ccc([C@H]2COC3(CCN(C(=O)O[C@H](CO)C(F)(F)F)CC3)C2)cc1F [Example 27, (2R)-1,1,1-trifluoro-3-hydroxypropan-2-yl (3S)-3-(4-cyano-3-fluorophenyl)-1-oxa-8-azaspiro[4.5]decane-8-carboxylate]	22800 1/s per M	3	17
CN(C(=O)C(C)(C)C)C1CC2(CCN(C(=O)O[C@H](CO)C(F)(F)F)CC2)C1 [Example 42, (2R)-1,1,1-trifluoro-3-hydroxypropan-2-yl 2-[(2,2-dimethylpropanoyl)(methyl)amino]-7-azaspiro[3.5]nonane-7-carboxylate]	309000 1/s per M	0.4	4
